Patent US20120134940A1, “NANODISPERSIONS” (priority 2006, published 2012)

Settings: payload material itself
From the text: By selection of a carrier which is also soluble in both DMSO and one of water, ethanol and PPG (for example PVP/HPC) it is possible to obtain a nano-disperse form of either payload material in the carrier, which can be “dissolved” in water, ethanol or PPG.

COc1cc(C=O)cc(-c2cc(C=O)cc(OC)c2O)c1O [divanillin]
solubility in DMSO: soluble | solubility in water, ethanol and poly-propylene glycol: insoluble
